The text below walks through data of paper PMC9516332 (Frontiers in Oncology, 2022).

Experiment in all cases: Kinase panel profiling at 1 µmol/L (MSA or IMAP), percentage inhibition
What all share (format): biochemical

The target in assay [1] is panel of 255 wild-type kinases (Homo sapiens, UniProt P04629). To be noted: kinase TRKA; 1 µmol/L single concentration; read-out: %-inhibition at 1 µmol/L, TRKA.
In assay [2] the target is panel of 255 wild-type kinases (Homo sapiens, UniProt P07949). To be noted: kinase RET; 1 µmol/L single concentration; read-out: %-inhibition at 1 µmol/L, RET.
The target of assay [3] is panel of 255 wild-type kinases (Homo sapiens, UniProt P21802). To be noted: kinase FGFR2; 1 µmol/L single concentration; read-out: %-inhibition at 1 µmol/L, FGFR2.
The target of assay [4] is panel of 255 wild-type kinases (Homo sapiens, UniProt P48729). To be noted: kinase CK1α; 1 µmol/L single concentration; read-out: %-inhibition at 1 µmol/L, CK1α.
Assay [5] has as its target panel of 255 wild-type kinases (Homo sapiens, UniProt P49137). To be noted: kinase MAPKAPK2; 1 µmol/L single concentration; read-out: %-inhibition at 1 µmol/L, MAPKAPK2.
Assay [6] deals with panel of 255 wild-type kinases (Homo sapiens, UniProt P49761). To be noted: kinase CLK3; 1 µmol/L single concentration; read-out: %-inhibition at 1 µmol/L, CLK3.
Assay [7] concerns the target panel of 255 wild-type kinases (Homo sapiens, UniProt P78362). To be noted: kinase SRPK2; 1 µmol/L single concentration; read-out: %-inhibition at 1 µmol/L, SRPK2.
Assay [8] has as its target panel of 255 wild-type kinases (Homo sapiens, UniProt Q04912). To be noted: kinase RON; 1 µmol/L single concentration; read-out: %-inhibition at 1 µmol/L, RON.
In assay [9] the target is panel of 255 wild-type kinases (Homo sapiens, UniProt Q15349). To be noted: kinase RSK3; 1 µmol/L single concentration; read-out: %-inhibition at 1 µmol/L, RSK3.
Assay [10] concerns the target panel of 255 wild-type kinases (Homo sapiens, UniProt Q16539). To be noted: p38α; 1 µmol/L single concentration; read-out: %-inhibition, p38α.
Assay [11] has as its target T1, panel of 255 wild-type kinases (Homo sapiens, UniProt Q8IWQ3).
T1 sequence (Q8IWQ3 1-736): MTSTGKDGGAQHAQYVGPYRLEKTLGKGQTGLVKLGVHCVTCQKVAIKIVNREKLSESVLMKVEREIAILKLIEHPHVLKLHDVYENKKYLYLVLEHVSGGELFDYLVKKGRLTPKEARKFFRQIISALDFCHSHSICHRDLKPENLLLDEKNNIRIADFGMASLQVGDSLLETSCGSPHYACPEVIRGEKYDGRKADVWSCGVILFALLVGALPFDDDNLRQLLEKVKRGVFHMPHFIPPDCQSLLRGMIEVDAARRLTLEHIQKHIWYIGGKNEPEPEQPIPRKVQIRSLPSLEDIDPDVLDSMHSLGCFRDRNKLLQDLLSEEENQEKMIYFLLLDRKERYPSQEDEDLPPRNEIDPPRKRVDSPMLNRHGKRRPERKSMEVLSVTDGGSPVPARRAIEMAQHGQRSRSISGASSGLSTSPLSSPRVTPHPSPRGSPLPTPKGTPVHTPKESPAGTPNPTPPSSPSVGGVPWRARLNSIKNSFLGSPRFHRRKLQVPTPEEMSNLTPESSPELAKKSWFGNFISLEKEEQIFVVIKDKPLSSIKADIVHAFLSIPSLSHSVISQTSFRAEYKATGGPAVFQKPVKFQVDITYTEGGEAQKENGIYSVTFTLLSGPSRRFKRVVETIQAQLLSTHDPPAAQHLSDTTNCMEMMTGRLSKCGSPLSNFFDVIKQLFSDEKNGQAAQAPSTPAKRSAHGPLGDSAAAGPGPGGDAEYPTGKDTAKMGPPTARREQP
To be noted: BRSK2 kinase assay; 1 µmol/L single concentration; read-out: %-inhibition BRSK2.

In assay [12] the target is T2, panel of 255 wild-type kinases (Homo sapiens, UniProt Q8TDC3).
T2 sequence (Q8TDC3 1-778): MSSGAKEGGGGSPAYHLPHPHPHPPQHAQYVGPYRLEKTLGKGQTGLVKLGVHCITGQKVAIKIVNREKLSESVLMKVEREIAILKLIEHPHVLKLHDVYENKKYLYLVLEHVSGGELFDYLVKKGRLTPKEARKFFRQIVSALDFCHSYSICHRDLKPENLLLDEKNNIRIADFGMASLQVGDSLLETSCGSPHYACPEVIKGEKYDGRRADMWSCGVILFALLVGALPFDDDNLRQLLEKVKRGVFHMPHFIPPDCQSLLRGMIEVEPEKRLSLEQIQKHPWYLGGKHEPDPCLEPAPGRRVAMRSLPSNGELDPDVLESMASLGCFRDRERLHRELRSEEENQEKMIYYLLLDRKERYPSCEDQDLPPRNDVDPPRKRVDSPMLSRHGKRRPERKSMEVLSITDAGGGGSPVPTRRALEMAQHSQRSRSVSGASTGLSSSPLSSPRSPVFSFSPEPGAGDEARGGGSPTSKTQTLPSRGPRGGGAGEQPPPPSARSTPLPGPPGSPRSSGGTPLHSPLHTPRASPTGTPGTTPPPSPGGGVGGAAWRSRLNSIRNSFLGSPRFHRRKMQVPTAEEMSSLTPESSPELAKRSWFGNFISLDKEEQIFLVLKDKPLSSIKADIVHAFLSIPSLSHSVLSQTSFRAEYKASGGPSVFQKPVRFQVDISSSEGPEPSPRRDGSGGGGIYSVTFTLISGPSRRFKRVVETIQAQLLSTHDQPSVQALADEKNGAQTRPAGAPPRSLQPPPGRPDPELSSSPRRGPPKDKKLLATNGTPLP
To be noted: BRSK1 kinase assay; 1 µmol/L single concentration; read-out: %-inhibition BRSK1.

Assay [13] addresses panel of 255 wild-type kinases (Homo sapiens, UniProt Q96GD4). To be noted: AurB kinase assay; 1 µmol/L single concentration; read-out: %-inhibition AurB.
The target of assay [14] is panel of 255 wild-type kinases (Homo sapiens, UniProt Q9UK32). To be noted: kinase RSK4; 1 µmol/L single concentration; read-out: %-inhibition at 1 µmol/L, RSK4.
Assay [15] has as its target panel of 255 wild-type kinases (Homo sapiens, UniProt Q9UPE1). To be noted: MSSK1; 1 µmol/L single concentration; read-out: %-inhibition, MSSK1.

As to `Cc1nc(NC(=O)N2CCC[C@H]2C(N)=O)sc1-c1ccnc(C(C)(C)C(F)(F)F)c1` [alpelisib], the inhibition at 1 µM in assay [1] is 6.61%; in [2], 1.62%; in [3] it was 7%; in [4] it was -14%; in [5], -16%; in assay [6], 22%. For the same compound, the inhibition at 1 µM in [7] is -1.61%; in [8], 7%; in assay [9], -1.47%; in assay [10], 2.59%; in assay [11], 14%; in [12] it was 12%. In addition, the inhibition at 1 µM is -4.26% in assay [13], -4% in [14] and -3.38% in assay [15].

As for `CN1CCN(c2ccc(C(=O)Nc3n[nH]c4ccc(Cc5cc(F)cc(F)c5)cc34)c(NC3CCOCC3)c2)CC1` [entrectinib], the inhibition at 1 µM in assay [3] is 97%; in assay [5], -14%; in assay [6] it was 3.46%; in assay [7] it was 21%; in assay [8], 33%; in assay [10] it was 7%. The inhibition at 1 µM in assay [11] stood at 18%; in [12], 8%; in assay [13], 48%; in [15], 12%.

With `CCN1CCN(c2ccc(Nc3cc(N(C)C(=O)Nc4c(Cl)c(OC)cc(OC)c4Cl)ncn3)cc2)CC1` [infigratinib], the inhibition at 1 µM in assay [1] was 27%; in assay [4] it was -7.38%; in assay [5], -32%; in assay [6], 12%; in assay [7], -5.51%; in [8], 0.707%. The inhibition at 1 µM was -0.616% in [9]; 4.45% in [10]; 2.65% in assay [11]; 1.2% in [12]; -5% in assay [13]; 7% in [14]. For the same compound, in assay [15], the inhibition at 1 µM is -2.83%.

Regarding `C[C@H]1Oc2cc(cnc2N)-c2c(nn(C)c2C#N)CN(C)C(=O)c2ccc(F)cc21` [lorlatinib], the inhibition at 1 µM in assay [2] was 10%; in assay [3], 5.32%; in [4], -12%; in [5], -14%; in assay [6], 0.641%; in assay [7], 4%. The inhibition at 1 µM stood at 11% in assay [8]; 2.53% in [9]; 6% in assay [10]; 36% in assay [11]; 29% in assay [12]; 5% in assay [13]. The inhibition at 1 µM in [14] is -2%; in [15], 33%.

Consider `CCN1C(=O)N(c2c(F)c(OC)cc(OC)c2F)Cc2cnc3[nH]c(CN4CCOCC4)cc3c21` [pemigatinib], for which the inhibition at 1 µM in assay [1] was 14%; in [2] it was 55%; in [4], 2.22%; in assay [5] it was -0.432%; in [6], -1%; in assay [7] it was -6%. Further, the inhibition at 1 µM was 4.48% in assay [8]; -7.51% in assay [9]; 14% in [10]; 3.17% in [11]; 0.395% in [12]; 2.32% in [13]. The inhibition at 1 µM in assay [14] and in [15] was -7% each time.
